According to patent US8835403B2, “Algin oligosaccharides and the derivatives thereof as well as the manufacture and the use of the same” (priority 2004, dated 2014):

Assays:
Aβ = Aβ (Homo sapiens, UniProt P05067); assay: Binding site of 6-mer on Aβ (further studies)
SOD = SOD activity of cerebral cortex and hippocampus of Aβ1-40-induced AD mice; format: in vivo
[1] = tested on: AD mice induced by Aβ1-40; assay: Step-through passive avoidance task of AD mice induced by Aβ1-40; format: in vivo
Protocol: (§1) Male Balb/c mice (18-22 g, purchased from Laboratory Centre of Shandong University) are weighed and randomly assigned to six groups as follows: a control group, a model group, a low-concentration (15 mg/kg) 6-mer-treated group, a middle-concentration (30 mg/kg) 6-mer-treated group, a high-concentration (60 mg/kg) 6-mer-treated group, and a Huperzine A-treated (HBY, with a concentration of 0.2 mg/kg) group. The mice were oral administered with corresponding drugs on day 3 after grouping. The drugs were administered once a day consecutively with a dosage of 0.5 ml/20 g until the experiment is completed. The mice of control and model groups were simultaneously administered with an equivalent amount of normal saline.
On the 25th day after Aβ injection, mice are further trained for step-through passive avoidance task. In the task, each mouse is placed in the illuminated compartment of the apparatus, facing away from the dark compartment, and the door is opened, allowing access to the dark compartment. Once the mouse enters the dark compartment, it receives an inescapable electric shock on the feet (36 V) through the stainless steel grid floor. The test is similarly performed after 24 h. The entry time of each mouse into the dark chamber (step-through latency, maximum testing limited to 3 min) and the number of entries into the dark compartment (number of errors) are recorded.
Each group has 8 animals. The data are presented as mean±SE. The symbol # means significant difference compared with the control group (P<0.05). * means significant difference compared with the model group (P<0.05). The step-through latency of Aβ1-40-treated group is shortened (P<0.01) and the error number is increased (P<0.05) compared with that of the control group, indicating the successful establishment of AD mice.

[2] = tested on: AD mice induced by Aβ1-40; assay: Morris water maze test of AD mice induced by Aβ1-40; format: in vivo; settings: for Escape latency (s) 1st day: 1st day of test; for Escape latency (s) 2nd day: 2nd day of test; for Escape latency (s) 3rd day: 3rd day of test; for Latency bias(%): probe trial, 4th day, within 60 s
Protocol: as §1
On the 8th day after drug administration, mice are injected with aged Aβ1-40 except the vehicle group as the method of reference (Jhoo J H et al., β-amyloid (1-42)-induced learning and memory deficits in mice: involvement of oxidative burdens in the hippocampus and cerebral cortex. Behavioural Brain Research (2004) 155: 185-196) to induce the AD model. Aged Aβ1-40 solution is injected into the right cerebral ventricle. […] However, on the 1st day of test, this increased escape latency is shortened in all drug-treated groups except the group treated with 15 mg/kg of 6-mer. And the escape latency of 60 mg/kg 6-mer-treated group has statistical significance compared with that of the model group (P<0.05). On the 2nd and 3rd day of test, the escape latency of all drug-treated groups are shortened, wherein that of 60 mg/kg 6-mer-treated group and HBY-treated group have statistical significance compared with that of the model group (P<0.05).
On the 4th day of Morris water maze test, the original plate is removed and the percentage of time of mice staying at the phase of original plate within 60 s is recorded.

[3] = tested on: diabetic mice induced by STZ; assay: Blood glucose of diabetic mice induced by streptozotocin (STZ); format: in vivo; settings: blood on 11th day, STZ 150 mg/kg i.p.
Protocol: Sixty male NIH mice (weighed 18-22 g) are randomly divided to control, model, 50, 150, 450 mg/kg 6-mer-treated and 5 mg/kg dimethyldiguanide-treated groups. The mice are injected intraperitoneally with 150 mg/kg STZ except control group at the 1st day. Then the mice are given accordingly drugs consecutively for 10 days and eyeballs are picked out to extract blood on the 11th day. The blood is taken to measure the glucose concentration.

[4] = tested on: primary cerebral cortex neurons of rat; assay: Protection of primary neurons impaired by aged Aβ25-35 (MTT); format: cell-based; settings: 30 μM aged Aβ25-35 24 h, Aβ alone 54.5±8.9%
Protocol: The primary cerebral cortex neurons of rat are cultured as the method of reference (Banker G A, et al., Rat hippocampal neurons in dispersed cell culture. Brain Res, 1977, 126:397-425). The cells cultured for 1 week are used in this experiment. That is to say, on the 8th day the cells are pretreated with a series of concentrations of 6-mer (final concentration of 0, 10, 50, 100 μg/ml) for 24 h, followed by the addition of aged Aβ25-35 (Firstly resolved in distilled water with a concentration of 1 mg/ml, then stayed at 37° C. for 7 days to get aged Aβ25-35 and stored at −20° C. for use) with a final concentration of 30 μM. After 24 h at 37° C., 10 μl of MTT with a concentration of 5 mg/ml is added. After 4 h at 37° C., the supernatant is removed and 150 μl of DMSO is added. Then the absorbance at 570 nm (630 nm as reference) is recorded with an ELISA reader (Rainbow, TECAN, Austria).

MDA = MDA content of cerebral cortex and hippocampus of Aβ1-40-induced AD mice; format: in vivo
SH-SY5Y cells = assay: Apoptosis of SH-SY5Y induced by Aβ25-35 (propidium iodide flow cytometry); format: cell-based; settings: 30 μM aged Aβ25-35 48 h, Aβ alone 24.8±1.9%
Protocol: SH-SY5Y cells are incubated in 6-well plates at a density of 2×10^5 cells per well. The day after plating, cells are pretreated with varying concentrations (0, 50, 100 μg/ml) of 6-mer for 24 h, followed by the addition of 30 μM aged Aβ25-35 (purchased from Sigma. Co.). After 48 h at 37° C., cells are digested, collected, washed, centrifuged at 1200 rpm and incubated with […] of a mixture of 5 mg/ml propidium iodide (Hyclone Co.) and 100 U/ml RNase (Hyclone Co.). Then the cells are measured by flow cytometry (BD Co., US), with 8000 cells per sample

[5] = 50 μg/ml 6-mer 24 h pretreatment
[6] = 100 μg/ml 6-mer 24 h pretreatment

O=C(O)C1OC(OC2C(C(=O)O)OC(OC3C(C(=O)O)OC(OC4C(C(=O)O)OC(OC5C(C(=O)O)OC(OC6C(C(=O)O)OC(O)C(O)C6O)C(O)C5O)C(O)C4O)C(O)C3O)C(O)C2O)C(O)C(O)C1O (centres unmarked) [6-mer, mannuronic hexasaccharide]
binding site on Aβ25-35 (Aβ): Ser26˜Lys28 | SOD activity (NU/mg prot.) cerebral cortex (SOD; 15 mg/kg): 49.35 ± 2.27 NU/mg prot. | SOD activity (NU/mg prot.) cerebral cortex (SOD; 30 mg/kg): 51.84 ± 2.07 NU/mg prot. | SOD activity (NU/mg prot.) cerebral cortex (SOD; 60 mg/kg): 57.50 ± 2.51 NU/mg prot. | SOD activity (NU/mg prot.) hippocampus (SOD; 15 mg/kg): 69.76 ± 6.12 NU/mg prot. | SOD activity (NU/mg prot.) hippocampus (SOD; 30 mg/kg): 61.72 ± 4.27 NU/mg prot. | SOD activity (NU/mg prot.) hippocampus (SOD; 60 mg/kg): 79.97 ± 7.34 NU/mg prot. | number of errors ([1]; 6-mer-treated groups, vs model group (FIG. 6)): significantly reduced | step-through latency ([1]; 30 and 60 mg/kg 6-mer, vs model group (FIG. 5)): significantly prolonged | Escape latency (s) 1st day ([2]; 6-mer 15 mg/kg oral once a day): 90.07 ± 10.71 s | Escape latency (s) 2nd day ([2]; 6-mer 15 mg/kg oral once a day): 83.29 ± 9.53 s | Escape latency (s) 3rd day ([2]; 6-mer 15 mg/kg oral once a day): 72.83 ± 12.50 s | Escape latency (s) 1st day ([2]; 6-mer 30 mg/kg oral once a day): 77.71 ± 8.69 s | Escape latency (s) 2nd day ([2]; 6-mer 30 mg/kg oral once a day): 71.69 ± 10.11 s | Escape latency (s) 3rd day ([2]; 6-mer 30 mg/kg oral once a day): 68.45 ± 14.46 s | Escape latency (s) 1st day ([2]; 6-mer 60 mg/kg oral once a day): 56.92 ± 9.92 s | Escape latency (s) 2nd day ([2]; 6-mer 60 mg/kg oral once a day): 63.57 ± 10.54 s | Escape latency (s) 3rd day ([2]; 6-mer 60 mg/kg oral once a day): 62.50 ± 13.10 s | Latency bias(%) ([2]; 15 mg/kg): 19.67 ± 5.15% | Latency bias(%) ([2]; 30 mg/kg): 22.99 ± 5.79% | Latency bias(%) ([2]; 60 mg/kg): 28.44 ± 6.08 % | Blood glucose concentration ([3]; 50 mg/kg for 10 days): 219.4 ± 67.8 mg/dL | Blood glucose concentration ([3]; 150 mg/kg for 10 days): 179.6 ± 69.8 mg/dL | Blood glucose concentration ([3]; 450 mg/kg for 10 days): 162.5 ± 3 mg/dL | survived rate ([4]; 10 μg/ml 6-mer 24 h pretreatment): 72.0±11.2% | survived rate [4, 5]: 77.1±8.1% | survived rate [4, 6]: 82.3±11.6% | MDA content (nmol/ml) cerebral cortex (MDA; 15 mg/kg): 1.79 ± 0.15 nmol/mL | MDA content (nmol/ml) cerebral cortex (MDA; 30 mg/kg): 1.87 ± 0.18 nmol/mL | MDA content (nmol/ml) cerebral cortex (MDA; 60 mg/kg): 1.47 ± 0.11 nmol/mL | MDA content (nmol/ml) hippocampus (MDA; 15 mg/kg): 4.28 ± 0.82 nmol/mL | MDA content (nmol/ml) hippocampus (MDA; 30 mg/kg): 2.48 ± 0.43 nmol/mL | MDA content (nmol/ml) hippocampus (MDA; 60 mg/kg): 2.18 ± 0.43 nmol/mL | percentage of hypodiploid cells (SH-SY5Y cells; [5]): 10.2±1.3% | percentage of hypodiploid cells (SH-SY5Y cells; [6]): 5.1±0.7%
